Reference: ChEMBL document CHEMBL1156893, “Structure-activity relationships amongst 4-position quinoline methanol antimalarials that inhibit the growth of drug sensitive and resistant strains of Plasmodium falciparum” (Bioorg Med Chem Lett, 2010)

System: Plasmodium berghei
Test: Antimalarial activity against Plasmodium berghei infected in ICR mice (Mus musculus) assessed as delay in mortality at 160 mg/kg, perorally for 3 days
Type: functional, organism-based
Set-up: dose 160 mg/kg

Row | SMILES | survival time
1 | COCCCNCC(O)c1cc(C(F)(F)F)nc2c(C(F)(F)F)cccc12 (stereo not drawn) | 9 days
2 | CSCCCNCC(O)c1cc(C(F)(F)F)nc2c(C(F)(F)F)cccc12 (stereo not drawn) | 17 days
3 | COCCNCC(O)c1cc(C(F)(F)F)nc2c(C(F)(F)F)cccc12 (stereo not drawn) | 15 days
4 | CC1C(NCC(O)c2cc(C(F)(F)F)nc3c(C(F)(F)F)cccc23)CC2CC1C2(C)C (stereo not drawn) | 3 days
5 | OC(c1cc(C(F)(F)F)nc2c(C(F)(F)F)cccc12)C1CCCCN1 (racemic) | 17 days
6 | CC(C)CC(C)NCC(O)c1cc(C(F)(F)F)nc2c(C(F)(F)F)cccc12 (stereo not drawn) | 2 days
7 | CNCC(O)c1cc(C(F)(F)F)nc2c(C(F)(F)F)cccc12 (stereo not drawn) | 25 days
8 | CCCCNCC(O)c1cc(C(F)(F)F)nc2c(C(F)(F)F)cccc12 (stereo not drawn) | 8 days
